US8957228B2, “Macrolide compound having anticancer effect” (Tohoku University, priority 2010, dated 2015)

What was measured:
[1] = tested on: A549, H460 and A172 cell lines; assay: Antiproliferative activity test (Alamar Blue, 72 hours), statements across cell lines; type: cell-based, human; details: result in words; for induction of cell death: no data are shown
Text: (§1) Antiproliferative activities of exiguolide and its analogs shown in Examples were examined using A549 and H460 cell lines derived from lung cancer and an A172 cell line derived from human glioblastoma cells. Each cell line was maintained in an RPMI 1640 medium supplemented with 10% fetal bovine serum (in the cases of the H460 cell line and the A172 cell line) or in a DMEM medium supplemented with 10% fetal bovine serum (in the case of the A549 cell line). Cells in the proliferative phase were seeded in a 96-well plate in triplicate and were cultured for 72 hours in the presence of the compound at various concentrations. At the completion of the culture period, an Alamar Blue solution (Invitrogen Corporation) was added to each culture in an amount of 1/10 of that of the medium, followed by leaving to stand for 3 hours. The fluorescence intensity was measured with Fluoroskan Ascent (Thermo Fisher Scientific K.K.). […] The fluorescence intensities of experimental groups were determined as relative intensities to that of the control group and were plotted. The concentration of a compound for achieving the 50% growth inhibition (IC50) of each cancer cell line was calculated by a non-linear regression model of standard slope using the GraphPad Prism software.

[2] = tested on: MKN74 (human gastric carcinoma); assay: Drug sensitivity test, panel of human cultured cancer cell lines (sulforhodamine B colorimetry); type: cell-based
Method: (§2) The anticancer activity of exiguolide was examined by an in vitro drug sensitivity test using a panel of 39 human cultured cancer cell lines, by Professor Yamori, Molecular Pharmacology, Cancer Chemotherapy Center of Japanese Foundation for Cancer Research upon request.
(§3) The test was performed by seeding seven lung cancer cell lines, six gastric cancer cell lines, five colon cancer cell lines, five ovarian cancer cell lines, six brain cancer cell lines, five breast cancer cell lines, two kidney cancer cell lines, two prostatic cancer cell lines, and one melanoma cell line, 39 cell lines in total, in a 96-well plate, adding a sample solution containing a predetermined concentration of exiguolide to each well on the following day, culturing the cell lines for two days, and measuring the cell growth by colorimetry with sulforhodamine B. The measurement results were input into a computer, and the sensitivity patterns (growth rate and finger print, described below) of each cell line on exiguolide were analyzed using three parameters, GI50, TGI, and LC50, as indices. The data were also subjected to analysis comparing with sensitivities on known compounds showing cell growth-inhibiting activities.
(§4) The growth rate percentages were plotted with respect to drug concentrations (logarithm) for each cell line, and the growth rates (%) were summarized on each organ cancer (FIG. 3: dose-response curves). In each curve, the concentrations at the points at which the growth rates 50%, 0%, and -50% intersect horizontal lines correspond to log GI50, log TGI, and log LC50, respectively.
(§5) The average of log GI50 values of all cell lines tested was determined. The difference between this average and log GI50 value of each cell line (e.g., how much the GI50 of each cell line is high or low relative to the average is shown as logarithmic value) was determined, and the results were drawn as a bar graph extending left or right from the center showing the average log GI50 value (scale: 0) to form finger prints (FIG. 4). A cell line having higher sensitivity is drawn as a longer bar extending to the right side.

[3] = tested on: SK-OV-3 (human ovarian carcinoma); assay: as above; type: cell-based
Method: as §2, §3, §4, §5

[4] = tested on: NCI-H460 (human lung large cell carcinoma); assay: as above; type: cell-based
Method: as §2, §3, §4, §5

[5] = tested on: A549 (human lung adenocarcinoma); assay: as above; type: cell-based
Method: as §2, §3, §4, §5

[6] = tested on: A172 cell line derived from human glioblastoma cells; assay: Antiproliferative activity test (Alamar Blue, 72 hours); type: cell-based; details: read-out: IC50 (50% growth inhibition)
Text: as §1

[7] = tested on: Rb phosphorylation in A549 cell line; assay: Activity of cell cycle regulator Rb by Western blotting; type: cell-based, human; details: A549 exposed to 0.01 to 5 μM for 72 hours
[8] = tested on: Hemicentrotus pulcherrimus; details: Non Patent Literature 1; cited from earlier work
[9] = tested on: tumors induced by human lung cancer cell line A549; assay: In vivo antitumor activity test, subcutaneous tumor in immunodeficient mice; parameters: species or system mice (BALB/cAJcl-nu/nu); details: printed 'in the H460 cell line', 0.2 mg/kg intraperitoneally once a day
Method: (§6) Immunodeficient mice (BALB/cAJcl-nu/nu) were subcutaneously inoculated with human lung cancer cells (H460, A549, etc.). When the subcutaneous tumor volume reached approximately 200 mm^3, the mice were divided into an exiguolide administration group (n=2) and a control group (n=4) at random. The administration group was intraperitoneally administered with 0.2 mg/kg of exiguolide, and the control group with PBS (200 μL) and DMSO (5 to 10 μL), every day (once a day). […] The subcutaneous tumors were recognized from the body surface, and the change in tumor diameter was measured with a vernier caliper. […] After completion of the observation, the mice were euthanized with halothane. The tumors were extracted and were subjected to observation of the size, weight, and pathological findings.
(§7) The results are shown in FIG. 8 (H460) and FIG. 9 (A549). In each graph, the vertical axis (relative volume) represents the relative values of the estimated tumor volume of each group to that on the day 0, where the estimated tumor volume is expressed using a major axis “a” and a minor axis “b” by (a×b^2)/2.

[10] = tested on: tumors induced by human lung cancer cell line H460; assay: as above; parameters: species or system mice (BALB/cAJcl-nu/nu); details: 0.2 mg/kg intraperitoneally once a day, 15 days
Method: as §6, §7

[11] = tested on: A549 cell line derived from lung cancer; assay: Antiproliferative activity test (Alamar Blue, 72 hours); type: cell-based, human; details: read-out: IC50 (50% growth inhibition)
Text: as §1

[12] = tested on: H460 cell line derived from lung cancer; assay: as above; type: cell-based, human; details: read-out: IC50 (50% growth inhibition)
Text: as §1

H460 cell line = details: H460 exposed to 1 μM
Method: The cell-cycle arrest activity of exiguolide was investigated. The H460 cell line was exposed to 1 μM of exiguolide, and the ratio of cells at each cell cycle phase was measured with a flow cytometer. The DNA staining reagent used was propidium iodide. The A549 cell line was exposed to exiguolide (0.01 to 5 μM) for 72 hours, and then the activity of a cell cycle regulator, Rb, was measured by Wester blotting.

SK-OV-3 cell line = details: National Cancer Institute database; cited from earlier work
NCI-H460 cell line = details: National Cancer Institute database; cited from earlier work
A549 cell line = details: National Cancer Institute database; cited from earlier work
[13] = concentration inducing 50% cell death, read-out: LC50 (the source's name)
[14] = concentration inducing 50% growth inhibition, two days culture

COC(=O)C/C(C)=C/C=C\C=C\C1OC(=O)CC2C[C@H](O)C[C@H](CC3CCC[C@H](C[C@@H](C)/C=C/[C@@H]1C)O3)O2 (stereo partly shown) [analog 1]
cell growth-inhibiting effect [1]: remarkable cell growth-inhibiting effects | induction of cell death [1]: active induction of cell death was observed

COC(=O)C/C(C)=C/C=C\C=C\C1OC(=O)CC2CC(=O)C[C@H](CC3CCC[C@H](C[C@@H](C)/C=C/[C@@H]1C)O3)O2 (stereo partly shown) [analog 7]
cell growth-inhibiting effect [1]: remarkable cell growth-inhibiting effects | induction of cell death [1]: active induction of cell death was observed

CCCCC=C/C=C/C1OC(=O)CC2C[C@H](O)C[C@H](CC3CCC[C@H](C[C@@H](C)/C=C/[C@@H]1C)O3)O2 (stereo partly shown) [analog 4]
cell growth-inhibiting effect [1]: remarkable cell growth-inhibiting effects | induction of cell death [1]: active induction of cell death was observed

COC(=O)/C=C1\C[C@H]2CC(=O)O[C@@H](/C=C/C=C\C=C(/C)CC(=O)OC)[C@@H](C)/C=C/[C@H](C)C[C@H]3CCC[C@@H](C[C@@H](C1)O2)O3 [exiguolide, (−)exiguolide]
CC50 [2, 13]: > 100 µM | GI50 [2, 14]: 690 nM | Log GI50 [2, 14]: −6.16 | CC50 [3, 13]: > 100 µM | GI50 [3, 14]: 700 nM | Log GI50 [3, 14]: −6.15 | LC50 ([4]; concentration inducing 50% cell death): > 100 µM | GI50 [4, 14]: 10 nM | Log GI50 [4, 14]: −8.00 | CC50 [5, 13]: > 100 µM | GI50 [5, 14]: 650 nM | Log GI50 [5, 14]: −6.19 | IC50 [6]: 460 nM | phosphorylation of G1-regulating protein Rb [7]: decreased with an increase in concentration of exiguolide | activity of inhibiting maturation of ova and spermatozoa [8]: activity of inhibiting maturation of ova and spermatozoa | relative tumor weight ratio (administration group/control group) at the end of the experiment ([9]; second of two ratios): 0.33 | relative tumor weight of administration group at the end of the experiment ([9]; second of two values): 1.17 | relative tumor weight of administration group at the end of the experiment [10]: 3.35 | relative tumor weight ratio (administration group/control group) at the end of the experiment [10]: 0.17 | IC50 [11]: 590 nM | IC50 [12]: 280 nM | ratio of cells at G1 phase in cell cycle (H460 cell line): consistently increased the ratio of the G1 phase in cell cycle

CCC/C=C/C=C/C(=O)O[C@H]1/C(=C/C(=O)OC)C[C@H]2C[C@H]([C@@H](C)O)OC(=O)C[C@H](O)C[C@@H]3C[C@H](OC(C)=O)C(C)(C)[C@](O)(C[C@@H]4C/C(=C/C(=O)OC)C[C@H](/C=C/C(C)(C)[C@]1(O)O2)O4)O3 [bryostatin 1]
antiproliferative activity (log value compared with Log GI50) (SK-OV-3 cell line): −5.3 | antiproliferative activity (log value compared with Log GI50) (NCI-H460 cell line): −5.6 | antiproliferative activity (log value compared with Log GI50) (A549 cell line): −5.4
